From patent US20190374506A1, “COMPOSITIONS AND METHODS FOR TREATING CANCER” (BETH ISREAL DEACONESS MEDICAL CENTER, priority 2016, published 2019)

What was measured:
[1] = system: WWP1/NEDD4-1 E3 mediated PTEN K27-linked poly-ubiquitination; test: In vivo ubiquitination assay (Ni-NTA pull down, western blot) in DU145 cells; assay type: cell-based, human; conditions: 10 μM or 20 μM I3C for 4 Days
Method: DU145 cells expressing indicated plasmids were treated with 10 μM or 20 μM of I3C for 4 Days. The ubiquitinated PTEN was pulled down under denaturing conditions by Ni-NTA agarose and analysed by the western blot. Whether targeting WWP1/NEDD4-1, thereby enhancing PTEN dimerization and function, could offer a unique opportunity to treat MYC-driven cancers was investigated. […] As there is no small pharmacological inhibitor currently available to suppress/inhibit WWP1 activity, Indole-3-Carbinol (I3C), a potential WWP1 inhibitor, which suppresses the WWP1 activity through binding to its HECT domain, was used. First, to assess the on-target effects of I3C towards WWP1, Wwp1^−/− MEFs were used. […] Additionally, two independent PTEN stably knocked-down cells were generated. […] To analyse in vivo ubiquitination of PTEN, cells were transfected with various constructs, together with His-Ubiquitin and Myc-PTEN. Cells were lysed by buffer A (6 M guanidine-HCl, Na2HPO4/NaH2PO4 [pH 8.0], and 10 mM imidazole), and lysates were incubated with Ni-NTA agarose for 1.5 hours at 4° C. The beads were washed once with buffer A, twice with buffer ANTI (1 vol buffer A: 3 vol buffer TI [25 mM Tris-HCl, pH 6.8, and 20 mM imidazole]), and three times with buffer TI, and then analysed by western blot. In all experiments, an equal amount of His-Ubiquitin expression was verified by western blot analysis.

PC3 cells (PTEN-null) = test: Growth curves, colorimetric MTT assay, PC3 cells; assay type: cell-based, human; conditions: various doses of I3C for 5 Days
Description: FIG. 11C provides growth curves of DU145 (PTEN competent) or PC3 cells (PTEN null) treated with various doses of I3C for 5 Days, and then assayed with colorimetric MTT assay (three experiments). Whether targeting WWP1/NEDD4-1, thereby enhancing PTEN dimerization and function, could offer a unique opportunity to treat MYC-driven cancers was investigated. […] As there is no small pharmacological inhibitor currently available to suppress/inhibit WWP1 activity, Indole-3-Carbinol (I3C), a potential WWP1 inhibitor, which suppresses the WWP1 activity through binding to its HECT domain, was used. First, to assess the on-target effects of I3C towards WWP1, Wwp1^−/− MEFs were used. […] Additionally, two independent PTEN stably knocked-down cells were generated.

Hi-Myc mouse prostates = test: Preclinical study of I3C in Hi-Myc mice (prostate cancer); assay type: in vivo
Method: FIGS. 12A and 12B show hematoxylin and eosin (H&E) staining of mouse prostate and gross anatomy of representative Hi-Myc urogenital tract. Quantification of percentage of normal epithelium in Hi-Myc mice treated with vehicle or I3C at 6 months as shown in (A) (right). The mice at 5 months of age were treated I.P. with I3C (20 mg/kg), three times a week for 1 month starting on day zero. (n=4 per genotype) scale bar, […].
FIG. 12C provides a Western blot analysis of dorsal lateral prostate (DLP) lysates from Hi-Myc mice as in (A).
The boxed areas are enlarged three fold to show the subcellular localization of PTEN on the right. Arrow indicates the PTEN plasma membrane localization. Bar, 50 μm.
To examine the functional relevance of the WWP1/NEDD4-1/PTEN crosstalk in vivo, preclinical studies with I3C in Hi-Myc mice were performed. The expression of Hi-Myc in mouse prostate results in complete penetrance of prostatic intraepithelial neoplasia (PIN) and progresses into invasive adenocarcinoma within 5 to 12 months of age. To this end, cohorts of Hi-Myc mice at 5 months of age were treated with either the vehicle or I3C for one month.
The Beth Israel Deaconess Medical Center IACUC Committee on Animal Research approved all animal experiments. The transgenic mice used in these studies (Hi-Myc-mice), in which the prostate specific expression of human c-Myc is driven by the rat probasin promoter with two androgen response elements, were obtained from the Mouse Repository of National Cancer Institute. 9 mice per genotype were randomly chosen and used to examine the tumour at the indicated age. Wwp1−/−mice and its paired Wwp1+/+ mice (on a C57/BL6 background) were obtained from Dr. L. Matesic (University of South Carolina, Columbia, SC, USA) (Shu et al., 2013). The pathologist determined the histological grade blindly.
The mice were treated I.P. with I3C dissolved in 5% DMSO (20 mg/kg), three times a week for […] starting on day zero. I.P. administration allows I3C to achieve maximal systemic exposure.

NEDD4-1 = conditions: previous study (Aronchik et al., 2014); read-out: calculated equilibrium dissociation constant (Kd) with NEDD4-1; cited from earlier work
[2] = Hi-Myc mice, I3C 20 mg/kg I.P., western blot

OCc1c[nH]c2ccccc12 [I3C, indole-3-carbinol]
PTEN K27-linked poly-ubiquitination [1]: robustly diminished | cell growth (PC3 cells (PTEN-null)): only modestly suppressed cell growth | tumor size, DLP and AP (Hi-Myc mouse prostates; Hi-Myc mice 5 months of age, I3C 20 mg/kg I.P. three times a week for 1 month, dorsal lateral and anterior prostate): significantly reduced tumor size | tumor size, VP (Hi-Myc mouse prostates; Hi-Myc mice, I3C 20 mg/kg I.P. three times a week for 1 month, ventral prostate): less prominently | PTEN plasma membrane localization in prostate epithelial cells (IHC, DLP tissue) (Hi-Myc mouse prostates; Hi-Myc mice, I3C 20 mg/kg I.P., compared to vehicle): induced intense PTEN plasma membrane accumulation | histology of APs (Hi-Myc mouse prostates; Hi-Myc mice, I3C 20 mg/kg I.P., anterior prostate, H&E): completely disease-free | histology of DLPs: penetrance of invasive carcinoma (Hi-Myc mouse prostates; Hi-Myc mice, I3C 20 mg/kg I.P., dorsal lateral prostate, H&E): significantly lower penetrance | AKT activation in prostate lysates, AP and DLP (Hi-Myc mouse prostates; [2]): robustly inhibited AKT activation | PTEN protein level in prostate lysates (Hi-Myc mouse prostates; [2]): without affecting PTEN protein level | Kd (NEDD4-1): ~88.1 µM
